Reference: patent US4110327A, “2,3 Diketo-piperazinocarbonylamino alkanoic acids and derivatives” (Toyama Chemical Co., Ltd., priority 1974, dated 1978)
Values after ≈ are worked out from the molar mass of the structure shown.

How the values were obtained:
Salmonella typhi = test: MIC against clinical isolates; format: cell-based; conditions: unit assumed
Escherichia coli = test: MIC against clinical isolates; format: cell-based; conditions: unit assumed
Proteus morganii = test: MIC against clinical isolates; format: cell-based; conditions: clinical isolate, unit assumed
β-lactamase = test: Resistant activity against β-lactamase, iodometric assay; format: biochemical, Pseudomonas aeruginosa GN 238; conditions: relative to Potassium Penicillin G = 100
Experimental: (3) Resistant activity against β-lactamase, Pseudomonas aergionan GN 238:
The resistant activity of each compound against β-lactamase was measured in the manner described below.
β-Lactamase was prepared from Pseudomonas aeruginosa GN 238. This microorganism was cultured in 100 ml of a medium containing 2 g of yeast extract, 10 g of polypeptone, 2 g of glucose, 7 g of disodium hydrogen phosphate, 2 g of potassium dihydrogen phosphate, 1.2 g of ammonium sulfate and 0.4 g of magnesium sulfate, per liter, in a 500-ml Erlenmeyer flask for 6 hrs. at 37° C with shaking. The resulting cells were collected by centrifugation (5,000 r.p.m. × 10 min.), washed three times with 0.1 M phosphate buffer (pH 7.0). Subsequently, the cells were subjected to sonication (20 KHz, 20 min.) and then centrifuged at 15,000 r.p.m. for 60 min. By using the supernatant of enzyme fluid, the resistance of each compound against β-lactamase was determined by the iodometric assay method. Each numeral shown in Table 7 is a relative activity value calculated by assuming as 100 the activity of the control Potassium Penicillin G.

[1] = test system: Staphylococcus aureus 209p; test: MIC against standard strain, plate method; format: cell-based; conditions: unit assumed
Summary of the method: (§1)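 Plate-method MIC. Medium: heart infusion agar, pH 7.4. Inoculum: 10^4 cells per plate (10^6 cells/ml).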

Klebsiella pneumoniae [2] = test: MIC against standard strain, plate method; format: cell-based; conditions: unit assumed
Summary of the method: as §1

Proteus vulgaris 3027 = test: MIC against standard strain, plate method; format: cell-based; conditions: Proteus vulgaris 3027, standard strain; unit assumed
Summary of the method: as §1

Escherichia coli NIHJ = test: MIC against standard strain, plate method; format: cell-based; conditions: unit assumed
Summary of the method: as §1

[3] = test system: Pseudomonas aeruginosa I.F.O.; test: MIC against standard strain, plate method; format: cell-based; conditions: unit assumed
Summary of the method: as §1

Klebsiella pneumoniae [4] = test: MIC against clinical isolates; format: cell-based; conditions: unit assumed
Staphylococcus aureus = test: MIC against clinical isolates; format: cell-based; conditions: unit assumed
Proteus vulgaris = test: MIC against clinical isolates; format: cell-based; conditions: clinical isolate, unit assumed
Proteus rettgeri = test: MIC against clinical isolates; format: cell-based; conditions: clinical isolate, unit assumed
Salmonella typhi-murium = test: MIC against clinical isolates; format: cell-based; conditions: unit assumed
Proteus mirabilis = test: MIC against clinical isolates; format: cell-based; conditions: clinical isolate, unit assumed
Shigella sonnei = test: MIC against clinical isolates; format: cell-based; conditions: unit assumed
Experimental: (§2) The minimum inhibitory concentrations (MIC) was determined by the plate method disclosed in "Chemotherapy" (Japan), Vol. 16, (1968), pages 98 - 99. The culture medium used was a Heart infusion agar (pH 7.4). The number of the cells per plate used in the inoculum as 10^4 (10^6 cells/ml).
(§3) MIC was determined in the same manner as in the preceding paragraph (1).

Shigella flexneri = test: MIC against clinical isolates; format: cell-based; conditions: unit assumed
Experimental: as §2, §3

Pseudomonas aeruginosa = test: MIC against clinical isolates; format: cell-based; conditions: unit assumed
[5] = clinical isolate GN (number not given; Table 5-3)

Work on `CCCCCN1CCN(C(=O)N[C@@H](C(=O)N[C@@H]2C(=O)N3[C@@H]2SC(C)(C)[C@@H]3C(=O)O)c2ccccc2)C(=O)C1=O` (single isomer, unassigned) [compound 45] yielded an MIC (Salmonella typhi; clinical isolate SL 819) of 1.57 µg/mL (≈ 2.81 µM), an MIC (Salmonella typhi; clinical isolate SL 2169) of 0.79 µg/mL (≈ 1.41 µM) and an MIC (Escherichia coli; clinical isolate GN 3435) of 0.79 µg/mL (≈ 1.41 µM). For the same compound, the MIC (Escherichia coli; clinical isolate GN 3465) was 25 µg/mL (≈ 44.7 µM), the MIC (Escherichia coli; clinical isolate GN 3611) was greater than 200 µg/mL and the MIC (Escherichia coli; clinical isolate K-1) was 0.79 µg/mL (≈ 1.41 µM). For the same compound, the MIC (Escherichia coli; clinical isolate K-3) was 200 µg/mL (≈ 357 µM), the MIC (Escherichia coli; clinical isolate K-4) was 0.79 µg/mL (≈ 1.41 µM) and the MIC (Proteus morganii) was 0.79 µg/mL (≈ 1.41 µM). It also gave a Relative activity (β-lactamase) of 16%, an MIC [1] of 0.79 µg/mL (≈ 1.41 µM) and an MIC (Klebsiella pneumoniae [2]) of 0.79 µg/mL (≈ 1.41 µM). For the same compound, the MIC (Proteus vulgaris 3027) was 0.4 µg/mL (≈ 0.715 µM), the MIC (Escherichia coli NIHJ) was less than 0.1 µg/mL and the MIC [3] was 12.5 µg/mL (≈ 22.3 µM). The MIC (Klebsiella pneumoniae [4]; clinical isolate GN 3850) was 3.13 µg/mL (≈ 5.59 µM), the MIC (Klebsiella pneumoniae [4]; clinical isolate GN 4081) was 25 µg/mL (≈ 44.7 µM) and the MIC (Klebsiella pneumoniae [4]; clinical isolate GN 4117) was 25 µg/mL (≈ 44.7 µM). The MIC (Staphylococcus aureus; clinical isolate F-1) was 6.25 µg/mL (≈ 11.2 µM), the MIC (Staphylococcus aureus; clinical isolate F-4) was 6.25 µg/mL (≈ 11.2 µM) and the MIC (Staphylococcus aureus; clinical isolate F-5) was greater than 200 µg/mL. For the same compound, the MIC (Staphylococcus aureus; clinical isolate MS 8588) was 3.13 µg/mL (≈ 5.59 µM), the MIC (Staphylococcus aureus; clinical isolate MS 8596) was 3.13 µg/mL (≈ 5.59 µM) and the MIC (Staphylococcus aureus; clinical isolate MS 8619) was 0.79 µg/mL (≈ 1.41 µM). For the same compound, the MIC (Staphylococcus aureus; clinical isolate MS 8684) was 3.13 µg/mL (≈ 5.59 µM), the MIC (Staphylococcus aureus; clinical isolate MS 8713) was 6.25 µg/mL (≈ 11.2 µM) and the MIC (Proteus vulgaris) was less than 0.4 µg/mL. It also gave an MIC (Proteus rettgeri) of 6.25 µg/mL (≈ 11.2 µM), an MIC (Salmonella typhi-murium; clinical isolate SL 858) of 0.79 µg/mL (≈ 1.41 µM) and an MIC (Salmonella typhi-murium; clinical isolate SL 2136) of 200 µg/mL (≈ 357 µM). The MIC (Proteus mirabilis) was less than 0.4 µg/mL, the MIC (Shigella sonnei; clinical isolate JS 11232) was 25 µg/mL (≈ 44.7 µM) and the MIC (Shigella flexneri; clinical isolate JS 11215) was 25 µg/mL (≈ 44.7 µM). It also gave an MIC (Pseudomonas aeruginosa; clinical isolate GN 82) of 12.5 µg/mL (≈ 22.3 µM), an MIC (Pseudomonas aeruginosa; clinical isolate GN 163) of 12.5 µg/mL (≈ 22.3 µM) and an MIC (Pseudomonas aeruginosa; clinical isolate GN 221) of 3.13 µg/mL (≈ 5.59 µM). The MIC (Pseudomonas aeruginosa; clinical isolate GN 376) was 25 µg/mL (≈ 44.7 µM), the MIC (Pseudomonas aeruginosa; clinical isolate GN 383) was 25 µg/mL (≈ 44.7 µM) and the MIC (Pseudomonas aeruginosa; clinical isolate GN 1035) was 50 µg/mL (≈ 89.3 µM). It also gave an MIC (Pseudomonas aeruginosa; clinical isolate GN 1091) of 12.5 µg/mL (≈ 22.3 µM), an MIC (Pseudomonas aeruginosa; clinical isolate GN 2565) of 25 µg/mL (≈ 44.7 µM) and an MIC (Pseudomonas aeruginosa; clinical isolate GN 2987) of 12.5 µg/mL (≈ 22.3 µM). For the same compound, the MIC (Pseudomonas aeruginosa; [5]) was 25 µg/mL (≈ 44.7 µM), the MIC (Pseudomonas aeruginosa; clinical isolate S-1) was 25 µg/mL (≈ 44.7 µM) and the MIC (Pseudomonas aeruginosa; clinical isolate S-2) was 25 µg/mL (≈ 44.7 µM). For the same compound, the MIC (Pseudomonas aeruginosa; clinical isolate S-3) was 50 µg/mL (≈ 89.3 µM) and the MIC (Pseudomonas aeruginosa; clinical isolate S-4) was 25 µg/mL (≈ 44.7 µM).

`CCN1CCN(C(=O)N[C@@H](C(=O)N[C@@H]2C(=O)N3[C@@H]2SC(C)(C)[C@@H]3C(=O)O)c2ccccc2)C(=O)C1=O` [compound 36] gave an MIC (Salmonella typhi; clinical isolate SL 819) of 1.57 µg/mL (≈ 3.03 µM), an MIC (Salmonella typhi; clinical isolate SL 2169) of 1.57 µg/mL (≈ 3.03 µM) and an MIC (Escherichia coli; clinical isolate GN 3452) of 3.13 µg/mL (≈ 6.05 µM). The MIC (Escherichia coli; clinical isolate GN 3465) was 100 µg/mL (≈ 193 µM), the MIC (Escherichia coli; clinical isolate GN 3481) was 3.13 µg/mL (≈ 6.05 µM) and the MIC (Escherichia coli; clinical isolate GN 3611) was greater than 200 µg/mL. It also gave an MIC (Escherichia coli; clinical isolate K-1) of 3.13 µg/mL (≈ 6.05 µM), an MIC (Escherichia coli; clinical isolate K-2) of 3.13 µg/mL (≈ 6.05 µM) and an MIC (Escherichia coli; clinical isolate K-3) greater than 200 µg/mL. For the same compound, the MIC (Proteus morganii) was less than 0.4 µg/mL, the Relative activity (β-lactamase) was 14% and the MIC [1] was less than 1.57 µg/mL. It also gave an MIC (Klebsiella pneumoniae [2]) of less than 1.57 µg/mL, an MIC (Proteus vulgaris 3027) of less than 1.57 µg/mL and an MIC (Escherichia coli NIHJ) of less than 1.57 µg/mL. It also gave an MIC (Klebsiella pneumoniae [4]; clinical isolate GN 3850) of 12.5 µg/mL (≈ 24.2 µM), an MIC (Klebsiella pneumoniae [4]; clinical isolate GN 4081) of 100 µg/mL (≈ 193 µM) and an MIC (Klebsiella pneumoniae [4]; clinical isolate GN 4117) of 100 µg/mL (≈ 193 µM). The MIC (Staphylococcus aureus; clinical isolate F-1) was 12.5 µg/mL (≈ 24.2 µM), the MIC (Staphylococcus aureus; clinical isolate F-2) was 3.13 µg/mL (≈ 6.05 µM) and the MIC (Staphylococcus aureus; clinical isolate F-5) was greater than 200 µg/mL. For the same compound, the MIC (Staphylococcus aureus; clinical isolate MS 8588) was 3.13 µg/mL (≈ 6.05 µM), the MIC (Staphylococcus aureus; clinical isolate MS 8596) was 3.13 µg/mL (≈ 6.05 µM) and the MIC (Staphylococcus aureus; clinical isolate MS 8619) was 0.79 µg/mL (≈ 1.53 µM). It also gave an MIC (Staphylococcus aureus; clinical isolate MS 8684) of 3.13 µg/mL (≈ 6.05 µM), an MIC (Proteus vulgaris) of less than 0.4 µg/mL and an MIC (Proteus rettgeri) of 12.5 µg/mL (≈ 24.2 µM). For the same compound, the MIC (Salmonella typhi-murium; clinical isolate SL 858) was 6.25 µg/mL (≈ 12.1 µM), the MIC (Salmonella typhi-murium; clinical isolate SL 2136) was greater than 200 µg/mL and the MIC (Proteus mirabilis) was less than 0.4 µg/mL. It also gave an MIC (Shigella sonnei; clinical isolate JS 11232) of 50 µg/mL (≈ 96.6 µM), an MIC (Shigella sonnei; clinical isolate JS 11755) of 3.13 µg/mL (≈ 6.05 µM) and an MIC (Shigella flexneri; clinical isolate JS 11215) of 100 µg/mL (≈ 193 µM). It also gave an MIC (Shigella flexneri; clinical isolate JS 11839) of 3.13 µg/mL (≈ 6.05 µM), an MIC (Pseudomonas aeruginosa; clinical isolate GN 221) of 3.13 µg/mL (≈ 6.05 µM) and an MIC (Pseudomonas aeruginosa; clinical isolate GN 1035) of 25 µg/mL (≈ 48.3 µM). For the same compound, the MIC (Pseudomonas aeruginosa; clinical isolate GN 2565) was 25 µg/mL (≈ 48.3 µM), the MIC (Pseudomonas aeruginosa; clinical isolate GN 2987) was 12.5 µg/mL (≈ 24.2 µM) and the MIC (Pseudomonas aeruginosa; [5]) was 12.5 µg/mL (≈ 24.2 µM). The MIC (Pseudomonas aeruginosa; clinical isolate S-1) was 50 µg/mL (≈ 96.6 µM), the MIC (Pseudomonas aeruginosa; clinical isolate S-2) was 12.5 µg/mL (≈ 24.2 µM) and the MIC (Pseudomonas aeruginosa; clinical isolate S-3) was 25 µg/mL (≈ 48.3 µM). It also gave an MIC (Pseudomonas aeruginosa; clinical isolate S-4) of 50 µg/mL (≈ 96.6 µM).
